Assay results published in ChEMBL document CHEMBL3046111, “Synthesis and insecticidal activity of 1,2,4-oxadiazole and 1,2,4-thiadiazole derivatives” (2011).

Columns and labels:
Aphis craccivora = experiment: Insecticidal activity against Aphis craccivora (cowpea aphid) apterous adults reared on broad bean seedlings followed by compound spraying at 200 ppm assessed as insect mortality measured after 4 days; format: functional; details: 96 h
Nephotettix cincticeps [1] = experiment: Insecticidal activity against Nephotettix cincticeps (green rice leafhopper) fourth instar larvae reared on compound pre-treated rice seedlings assessed as insect mortality at 10 ppm measured after 7 days; format: functional
Nephotettix cincticeps [2] = experiment: Insecticidal activity against Nephotettix cincticeps (green rice leafhopper) fourth instar larvae reared on compound pre-treated rice seedlings assessed as insect mortality at 100 ppm measured after 7 days; format: functional
Nilaparvata lugens [3] = experiment: Insecticidal activity against imidacloprid-sensitive Nilaparvata lugens (brown planthopper) fourth-instar larvae reared on compound pre-treated rice seedlings assessed as insect mortality at 10 ppm measured after 7 days; format: functional
Nilaparvata lugens [4] = experiment: Insecticidal activity against imidacloprid-sensitive Nilaparvata lugens (brown planthopper) fourth-instar larvae reared on compound pre-treated rice seedlings assessed as insect mortality at 100 ppm measured after 7 days; format: functional
Nilaparvata lugens [5] = experiment: Insecticidal activity against imidacloprid-sensitive Nilaparvata lugens (brown planthopper) fourth-instar larvae reared on compound pre-treated rice seedlings assessed as insect mortality at 200 ppm measured after 7 days; format: functional
[6] = biological target: T1, Muscarinic acetylcholine receptor DM1 (Drosophila melanogaster) (UniProt P16395); experiment: Inhibition of [3H]NMS from mAChR in Musca domestica (house fly) nerve-cord membranes at […] incubated at 21 degC for 60 min
T1 sequence (whole entry): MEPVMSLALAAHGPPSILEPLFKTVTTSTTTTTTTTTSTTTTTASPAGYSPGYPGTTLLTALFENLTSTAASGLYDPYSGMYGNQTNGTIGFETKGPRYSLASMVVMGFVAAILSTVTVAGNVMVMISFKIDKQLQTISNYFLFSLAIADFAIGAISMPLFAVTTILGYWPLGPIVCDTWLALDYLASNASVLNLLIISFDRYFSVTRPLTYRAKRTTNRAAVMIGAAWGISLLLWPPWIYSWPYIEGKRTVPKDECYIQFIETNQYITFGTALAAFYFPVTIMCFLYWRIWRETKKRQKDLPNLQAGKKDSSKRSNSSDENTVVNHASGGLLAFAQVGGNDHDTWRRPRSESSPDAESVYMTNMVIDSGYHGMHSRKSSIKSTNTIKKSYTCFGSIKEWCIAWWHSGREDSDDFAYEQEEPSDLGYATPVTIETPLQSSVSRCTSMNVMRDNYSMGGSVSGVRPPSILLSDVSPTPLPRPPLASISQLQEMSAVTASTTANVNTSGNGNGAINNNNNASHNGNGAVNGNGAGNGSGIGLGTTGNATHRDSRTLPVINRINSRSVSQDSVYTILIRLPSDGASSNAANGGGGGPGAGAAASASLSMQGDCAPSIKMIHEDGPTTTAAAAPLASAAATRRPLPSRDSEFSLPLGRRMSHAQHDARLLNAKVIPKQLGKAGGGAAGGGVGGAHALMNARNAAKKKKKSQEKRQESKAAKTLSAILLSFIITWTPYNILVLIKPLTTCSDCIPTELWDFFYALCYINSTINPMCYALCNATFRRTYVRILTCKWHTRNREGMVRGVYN

Nilaparvata lugens [7] = experiment: Insecticidal activity against imidacloprid-resistant Nilaparvata lugens (brown plant hopper) fourth-instar larvae reared on compound pre-treated rice seedlings assessed as insect mortality at 1 ppm measured after 7 days; format: functional
Nilaparvata lugens [8] = experiment: Insecticidal activity against imidacloprid-resistant Nilaparvata lugens (brown planthopper) fourth-instar larvae reared on compound pre-treated rice seedlings assessed as insect mortality at 10 ppm measured after 7 days; format: functional
Nilaparvata lugens [9] = experiment: Insecticidal activity against imidacloprid-resistant Nilaparvata lugens (brown planthopper) fourth-instar larvae reared on compound pre-treated rice seedlings assessed as insect mortality at 100 ppm measured after 7 days; format: functional
Nilaparvata lugens [10] = experiment: Insecticidal activity against imidacloprid-sensitive Nilaparvata lugens (brown planthopper) fourth-instar larvae reared on compound pre-treated rice seedlings assessed as insect mortality at 1 ppm measured after 7 days; format: functional
[11] = biological target: T2, Nicotinic acetylcholine receptor alpha 5 subunit (Musca domestica) (UniProt A9XFY4); experiment: Inhibition of [3H]EPI from nicotinic acetylcholine receptor in Musca domestica (house fly) nerve-cord membranes at […] incubated at 21 degC for 60 min
T2 sequence (whole entry): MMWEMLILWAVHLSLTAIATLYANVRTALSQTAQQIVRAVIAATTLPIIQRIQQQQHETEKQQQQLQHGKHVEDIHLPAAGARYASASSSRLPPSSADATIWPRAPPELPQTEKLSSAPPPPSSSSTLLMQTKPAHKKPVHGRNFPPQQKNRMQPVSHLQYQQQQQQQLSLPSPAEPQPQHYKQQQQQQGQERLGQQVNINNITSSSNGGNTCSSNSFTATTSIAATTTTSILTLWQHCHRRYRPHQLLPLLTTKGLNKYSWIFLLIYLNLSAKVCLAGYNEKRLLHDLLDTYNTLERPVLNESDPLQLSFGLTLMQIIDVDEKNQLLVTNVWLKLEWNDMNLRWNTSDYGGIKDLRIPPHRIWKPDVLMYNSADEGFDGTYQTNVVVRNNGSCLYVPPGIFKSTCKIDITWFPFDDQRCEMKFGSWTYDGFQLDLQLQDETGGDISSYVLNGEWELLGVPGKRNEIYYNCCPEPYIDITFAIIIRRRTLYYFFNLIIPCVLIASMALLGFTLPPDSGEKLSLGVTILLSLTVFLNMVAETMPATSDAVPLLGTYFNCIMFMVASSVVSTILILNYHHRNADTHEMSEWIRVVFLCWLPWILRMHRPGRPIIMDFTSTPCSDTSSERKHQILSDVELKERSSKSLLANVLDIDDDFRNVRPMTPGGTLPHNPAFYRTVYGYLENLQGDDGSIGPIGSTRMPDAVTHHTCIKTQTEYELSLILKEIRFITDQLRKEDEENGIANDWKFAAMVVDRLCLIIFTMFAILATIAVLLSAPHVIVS

Nilaparvata lugens [12] = experiment: Insecticidal activity against imidacloprid-resistant Nilaparvata lugens (brown planthopper) fourth-instar larvae reared on compound pre-treated rice seedlings assessed as insect mortality at 0.1 ppm measured after 7 days; format: functional
Nilaparvata lugens [13] = experiment: Insecticidal activity against imidacloprid-sensitive Nilaparvata lugens (brown planthopper) fourth-instar larvae reared on compound pre-treated rice seedlings assessed as insect mortality at 0.1 ppm measured after 7 days; format: functional

| SMILES | mortality at 200 ppm (Aphis craccivora) [%] | mortality at 10 ppm (Nephotettix cincticeps [1]) [%] | mortality at 100 ppm (Nephotettix cincticeps [2]) [%] | mortality at 10 ppm (Nilaparvata lugens [3]) [%] | mortality at 100 ppm (Nilaparvata lugens [4]) [%] | mortality at 200 ppm (Nilaparvata lugens [5]) [%] | also measured |
| --- | --- | --- | --- | --- | --- | --- | --- |
| Cc1nsc(C2=CCCN(Cc3ccccc3)C2)n1 | 10 | 0 | 30 | 10 | 100 | 100 | – |
| CN1CCC=C(c2ncns2)C1 | 30 | – | – | – | – | 60 | – |
| Cc1nsc(-c2ccncc2)n1 | 40 | 20 | 40 | 20 | 100 | 100 | – |
| C#CC[n+]1cccc(-c2nc(C)ns2)c1 | 70 | 10 | 50 | 40 | 80 | 90 | – |
| Cc1noc(-c2ccncc2)n1 | 0 | – | – | – | – | 10 | – |
| CCCCCCCCCCN1CCC=C(c2nc(C)ns2)C1 | 60 | – | – | – | – | 30 | – |
| CCCC[n+]1cccc(-c2nc(C)ns2)c1 | 10 | – | – | – | – | 50 | – |
| CCCCCCCCCC[n+]1cccc(-c2nc(C)ns2)c1 | 60 | – | – | – | – | 0 | – |
| Cc1nsc(-c2cccnc2)n1 | 100 | 30 | 80 | 80 | 100 | 100 | inhibition [6]: 12%; mortality at 1 ppm (Nilaparvata lugens [7]): 50%; mortality at 10 ppm (Nilaparvata lugens [8]): 90%; mortality at 100 ppm (Nilaparvata lugens [9]): 100%; mortality at 1 ppm (Nilaparvata lugens [10]): 60%; inhibition [11]: 4% |
| C[n+]1cccc(-c2ncns2)c1 | 30 | – | – | – | – | 80 | – |
| C=CC[n+]1cccc(-c2nc(C)ns2)c1 | 10 | – | – | – | – | 40 | – |
| CCN1CCC=C(c2nc(C)ns2)C1 | 40 | 10 | 50 | 40 | 100 | 100 | – |
| Cc1nsc(-c2ccc[n+](CC#N)c2)n1 | 70 | 10 | 40 | 50 | 80 | 90 | – |
| c1cncc(-c2ncns2)c1 | 100 | 40 | 70 | 60 | 100 | 100 | – |
| Cc1nsc(C2=CCCN(C)C2)n1 | 40 | 0 | 30 | 80 | 100 | 100 | inhibition [6]: 62%; mortality at 1 ppm (Nilaparvata lugens [7]): 50%; mortality at 10 ppm (Nilaparvata lugens [8]): 90%; mortality at 100 ppm (Nilaparvata lugens [9]): 100%; mortality at 1 ppm (Nilaparvata lugens [10]): 30%; inhibition [11]: 6% |
| Cc1nsc(-c2ccc[n+](Cc3ccccc3)c2)n1 | 10 | – | – | – | – | 20 | – |
| Cc1noc(-c2ccccn2)n1 | 0 | – | – | – | – | 10 | – |

| SMILES | mortality at 200 ppm (Aphis craccivora) [%] | mortality at 10 ppm (Nephotettix cincticeps [1]) [%] | mortality at 100 ppm (Nephotettix cincticeps [2]) [%] | mortality at 10 ppm (Nilaparvata lugens [3]) [%] | mortality at 100 ppm (Nilaparvata lugens [4]) [%] | mortality at 200 ppm (Nilaparvata lugens [5]) [%] | also measured |
| --- | --- | --- | --- | --- | --- | --- | --- |
| Cc1noc(C2=CCCN(C)C2)n1 | 0 | 50 | 90 | 70 | 90 | 100 | – |
| C[n+]1cccc(-c2ncno2)c1 | 20 | – | – | – | – | 60 | – |
| O=[N+]([O-])/N=C1\NCCN1Cc1ccc(Cl)nc1 [IMIDACLOPRID] | – | – | – | – | – | – | mortality at 0.1 ppm (Nilaparvata lugens [12]): 50%; mortality at 1 ppm (Nilaparvata lugens [7]): 80%; mortality at 10 ppm (Nilaparvata lugens [8]): 100%; mortality at 0.1 ppm (Nilaparvata lugens [13]): 90%; mortality at 1 ppm (Nilaparvata lugens [10]): 100% |
| Cc1noc(-c2ccc[n+](C)c2)n1 | 10 | – | – | – | – | 10 | – |
| c1cncc(-c2ncno2)c1 | 20 | – | – | – | – | 50 | – |
| Cc1nsc(C2=CCCN(CC(C)C)C2)n1 | 50 | 0 | 10 | 70 | 100 | 100 | – |
| CCC(C)[n+]1cccc(-c2nc(C)ns2)c1 (stereo not drawn) | 20 | 10 | 50 | 90 | 90 | 100 | – |
| Cc1nsc(C2=CCCN(CC#N)C2)n1 | 50 | 0 | 50 | 10 | 100 | 100 | – |
| C=CCN1CCC=C(c2ncns2)C1 | 40 | 10 | 60 | 60 | 100 | 100 | – |
| Cc1nsc(C2CCCN(C)C2)n1 (stereo not drawn) | 0 | – | – | – | – | 30 | – |
| CC[n+]1cccc(-c2nc(C)ns2)c1 | 20 | – | – | – | – | 20 | – |
| Cc1noc(-c2cccnc2)n1 | 30 | – | 100 | – | 60 | 90 | – |
| C#CCN1CCC=C(c2ncns2)C1 | 30 | 20 | 60 | 30 | 100 | 100 | – |
| CCCCN1CCC=C(c2nc(C)ns2)C1 | 30 | 10 | 20 | 30 | 100 | 100 | – |
| Cc1nsc(-c2ccc[n+](C)c2)n1 | 60 | – | – | – | – | 40 | – |
| Cc1nsc(-c2ccccn2)n1 | 30 | – | – | – | – | 40 | – |
